Results from PubChem BioAssay (NCI).
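Values below derive from 48-hour exposures of cells grown in 96-well plates, with endpoints linearly interpolated between the two concentrations bracketing the appropriate inhibition level. Here, GI50 denotes the concentration required for 50% inhibition of growth. The concentration for full growth arrest is given as TGI.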

Key:
Test in all cases: inhibition of tumour cell growth, NCI panel, 48 h
A498 renal = system: A498 renal
A549 NSCLC = system: A549 NSCLC
ACHN renal = system: ACHN renal
BT-549 breast = system: BT-549 breast
CAKI-1 renal = system: CAKI-1 renal
CCRF-CEM leukemia = system: CCRF-CEM leukemia
COLO 205 colon = system: COLO 205 colon
DU-145 prostate = system: DU-145 prostate
EKVX NSCLC = system: EKVX NSCLC
HCC-2998 colon = system: HCC-2998 colon
HCT-15 colon = system: HCT-15 colon
HL-60(TB) leukemia = system: HL-60(TB) leukemia
HOP-62 NSCLC = system: HOP-62 NSCLC
HOP-92 NSCLC = system: HOP-92 NSCLC
HS 578T breast = system: HS 578T breast
HT29 colon = system: HT29 colon
IGROV1 ovarian = system: IGROV1 ovarian
K-562 leukemia = system: K-562 leukemia
KM12 colon = system: KM12 colon
M14 melanoma = system: M14 melanoma
MALME-3M melanoma = system: MALME-3M melanoma
MCF7 breast = system: MCF7 breast
MDA-MB-231 breast = system: MDA-MB-231 breast
MDA-MB-435 = system: MDA-MB-435
MOLT-4 leukemia = system: MOLT-4 leukemia
NCI-H226 lung = system: NCI-H226 lung
NCI-H23 lung = system: NCI-H23 lung
NCI-H460 lung = system: NCI-H460 lung
NCI-H522 lung = system: NCI-H522 lung
NCI/ADR-RES ovarian = system: NCI/ADR-RES ovarian
OVCAR-3 ovarian = system: OVCAR-3 ovarian
OVCAR-4 ovarian = system: OVCAR-4 ovarian
OVCAR-5 ovarian = system: OVCAR-5 ovarian
OVCAR-8 ovarian = system: OVCAR-8 ovarian
PC-3 prostate = system: PC-3 prostate
RPMI-8226 leukemia = system: RPMI-8226 leukemia
RXF 393 renal = system: RXF 393 renal
SF-268 CNS = system: SF-268 CNS
SF-295 CNS = system: SF-295 CNS
SF-539 CNS = system: SF-539 CNS
SK-MEL-2 melanoma = system: SK-MEL-2 melanoma
SK-MEL-28 melanoma = system: SK-MEL-28 melanoma
SK-MEL-5 melanoma = system: SK-MEL-5 melanoma
SK-OV-3 ovarian = system: SK-OV-3 ovarian
SN12C renal = system: SN12C renal
SNB-19 CNS = system: SNB-19 CNS
SNB-75 CNS = system: SNB-75 CNS
SW-620 colon = system: SW-620 colon
T-47D breast = system: T-47D breast
TK-10 renal = system: TK-10 renal
U251 CNS = system: U251 CNS
UACC-257 melanoma = system: UACC-257 melanoma
UACC-62 melanoma = system: UACC-62 melanoma
UO-31 renal = system: UO-31 renal

CN1CCN(Cc2ccc(NC(=O)c3cccc(C#Cc4cnc(N)c5ncccc45)c3F)cc2C(F)(F)F)CC1
GI50 (A498 renal): 1590 nM
TGI (A498 renal): 4610 nM
GI50 (A549 NSCLC): 747 nM
TGI (A549 NSCLC): 1580 nM
GI50 (ACHN renal): 477 nM
TGI (ACHN renal): 1090 nM
GI50 (BT-549 breast): 3100 nM
TGI (BT-549 breast): 11000 nM
GI50 (CAKI-1 renal): 530 nM
TGI (CAKI-1 renal): 6340 nM
GI50 (CCRF-CEM leukemia): 1010 nM
TGI (CCRF-CEM leukemia): 3670 nM
GI50 (COLO 205 colon): 1170 nM
TGI (COLO 205 colon): 6070 nM
GI50 (DU-145 prostate): 614 nM
TGI (DU-145 prostate): 1410 nM
GI50 (EKVX NSCLC): 6570 nM
TGI (EKVX NSCLC): 13700 nM
GI50 (HCC-2998 colon): 834 nM
TGI (HCC-2998 colon): 1600 nM
GI50 (HCT-15 colon): 546 nM
TGI (HCT-15 colon): 1350 nM
GI50 (HL-60(TB) leukemia): 1680 nM
TGI (HL-60(TB) leukemia): 18700 nM
GI50 (HOP-62 NSCLC): 1740 nM
TGI (HOP-62 NSCLC): 8710 nM
GI50 (HOP-92 NSCLC): 1270 nM
TGI (HOP-92 NSCLC): 4630 nM
GI50 (HS 578T breast): 1290 nM
TGI (HS 578T breast): 8660 nM
GI50 (HT29 colon): 677 nM
TGI (HT29 colon): 1530 nM
GI50 (IGROV1 ovarian): 476 nM
TGI (IGROV1 ovarian): 1310 nM
GI50 (K-562 leukemia): 5 nM
TGI (K-562 leukemia): 733 nM
GI50 (KM12 colon): 332 nM
TGI (KM12 colon): 6510 nM
GI50 (M14 melanoma): 590 nM
TGI (M14 melanoma): 1370 nM
GI50 (MALME-3M melanoma): 675 nM
TGI (MALME-3M melanoma): 1400 nM
GI50 (MCF7 breast): 793 nM
TGI (MCF7 breast): 1720 nM
GI50 (MDA-MB-231 breast): 773 nM
TGI (MDA-MB-231 breast): 1750 nM
GI50 (MDA-MB-435): 789 nM
TGI (MDA-MB-435): 1530 nM
GI50 (MOLT-4 leukemia): 770 nM
TGI (MOLT-4 leukemia): 3060 nM
GI50 (NCI-H226 lung): 647 nM
TGI (NCI-H226 lung): 1970 nM
GI50 (NCI-H23 lung): 3990 nM
TGI (NCI-H23 lung): 16400 nM
GI50 (NCI-H460 lung): 561 nM
TGI (NCI-H460 lung): 1370 nM
GI50 (NCI-H522 lung): 587 nM
TGI (NCI-H522 lung): 1470 nM
GI50 (NCI/ADR-RES ovarian): 1600 nM
TGI (NCI/ADR-RES ovarian): 5180 nM
GI50 (OVCAR-3 ovarian): 5070 nM
TGI (OVCAR-3 ovarian): 12000 nM
GI50 (OVCAR-4 ovarian): 735 nM
TGI (OVCAR-4 ovarian): 1590 nM
GI50 (OVCAR-5 ovarian): 722 nM
TGI (OVCAR-5 ovarian): 1520 nM
GI50 (OVCAR-8 ovarian): 828 nM
TGI (OVCAR-8 ovarian): 1780 nM
GI50 (PC-3 prostate): 2020 nM
TGI (PC-3 prostate): 9560 nM
GI50 (RPMI-8226 leukemia): 2280 nM
TGI (RPMI-8226 leukemia): 13200 nM
GI50 (RXF 393 renal): 613 nM
TGI (RXF 393 renal): 1300 nM
GI50 (SF-268 CNS): 5130 nM
TGI (SF-268 CNS): 14700 nM
GI50 (SF-295 CNS): 7060 nM
TGI (SF-295 CNS): 14700 nM
GI50 (SF-539 CNS): 733 nM
TGI (SF-539 CNS): 1500 nM
GI50 (SK-MEL-2 melanoma): 522 nM
TGI (SK-MEL-2 melanoma): 1940 nM
GI50 (SK-MEL-28 melanoma): 848 nM
TGI (SK-MEL-28 melanoma): 1590 nM
GI50 (SK-MEL-5 melanoma): 4300 nM
TGI (SK-MEL-5 melanoma): 12100 nM
GI50 (SK-OV-3 ovarian): 1390 nM
TGI (SK-OV-3 ovarian): 7460 nM
GI50 (SN12C renal): 817 nM
TGI (SN12C renal): 1590 nM
GI50 (SNB-19 CNS): 1410 nM
TGI (SNB-19 CNS): 3720 nM
GI50 (SNB-75 CNS): 1590 nM
TGI (SNB-75 CNS): 7480 nM
GI50 (SW-620 colon): 620 nM
TGI (SW-620 colon): 1710 nM
GI50 (T-47D breast): 5780 nM
TGI (T-47D breast): 14800 nM
GI50 (TK-10 renal): 5670 nM
TGI (TK-10 renal): 12900 nM
GI50 (U251 CNS): 741 nM
TGI (U251 CNS): 1430 nM
GI50 (UACC-257 melanoma): 828 nM
TGI (UACC-257 melanoma): 1650 nM
GI50 (UACC-62 melanoma): 2840 nM
TGI (UACC-62 melanoma): 13100 nM
GI50 (UO-31 renal): 849 nM
TGI (UO-31 renal): 1540 nM
